Measurements as given in patent publication US9006244B2, “Liver X receptor modulators” (priority 2012, dated 2015).

What was measured:
[1] = target: LXRβ (Homo sapiens (Human), UniProt P55055); assay: LXR luciferase transcriptional reporter gene assay, Gal4-LXRβ LBD in HEK293 cells; format: cell-based; settings: pG5-Luc luciferase reporter, 16 h, read-out: LXRβ CELL EC50
Protocol: (§2) The LXR luciferase transcriptional reporter gene assay measures the ability of LXR ligands to promote transcriptional activation via the ligand binding domain (LBD) of LXR. […] 90% confluent cells from a 150 mm dish were seeded in six 100 mm dishes. The cells were batch-transfected with an expression plasmid containing the Gal4 DNA binding domain fused to either the LBD of LXRα or LXRβ and a luciferase reporter plasmid pG5-Luc (Promega, Madison, Wis.), which has Gal4 response elements upstream of firefly luciferase gene (luc+). […] Five h following transfection, 15 mL of 10% charcoal-treated FBS (Hyclone, #SH30070.03) in DMEM were added to the transfected dishes without removing transfection media, and then incubate the cells at 37° C. overnight. The next day, the cells from the transfected dish were trypsinized, washed with PBS, resuspended in 10% charcoal-treated DMEM media and plated into 96-well plates with 60,000 cells/100 μL per well. The cells were incubated at 37° C. for ˜4 h before addition of 100 μL of test compound or control ligand at different concentrations (final DMSO concentration at 0.2%). Following incubation of the cells for 16 h with substances, the culture media were dumped and Bright-Glo™ luciferase reagent (Promega, Cat. #E2610) was added to lyse the cells and initiate the luciferase reaction. Luminescence, as a measure of luciferase activity, was detected in a plate reader (Victor2, PE-Wallac). Transcriptional activation in the presence of a test substance was expressed as fold-change in luminescence compared to that of cells incubated in the absence of the substance. EC50 values were calculated using the XLfit™ program (IDBS, Guilford, UK).

[2] = target: LXRα (Homo sapiens (Human), UniProt Q13133); assay: LXR luciferase transcriptional reporter gene assay, Gal4-LXRα LBD in HEK293 cells; format: cell-based; settings: pG5-Luc luciferase reporter, 16 h, read-out: LXRα CELL EC50
Protocol: as §2

[3] = target: LXRα ligand binding domain (LBD) (Homo sapiens (Human), UniProt Q13133); assay: LXR α radioligand binding assay (SPA, [3H]TO901317 competition)
Protocol: (§1) Poly-lysine SPA beads (50 μg) were added to each well and the total volume was adjusted to 120 μL. The plates were shaken on an orbital shaker for 20 min and then allowed to settle for 10 more minutes at rt before a brief centrifugation at 2,000 rpm for 1 min.

[4] = target: LXRβ ligand binding domain (LBD) (Homo sapiens (Human), UniProt P55055); assay: LXR β radioligand binding assay (SPA, [3H]TO901317 competition); settings: for selectivity for the LXRβ subtype over the LXRα subtype: LXRβ versus LXRα, statement in the summary
Protocol: as §1

LXRα, sequence (Q13133 209-447): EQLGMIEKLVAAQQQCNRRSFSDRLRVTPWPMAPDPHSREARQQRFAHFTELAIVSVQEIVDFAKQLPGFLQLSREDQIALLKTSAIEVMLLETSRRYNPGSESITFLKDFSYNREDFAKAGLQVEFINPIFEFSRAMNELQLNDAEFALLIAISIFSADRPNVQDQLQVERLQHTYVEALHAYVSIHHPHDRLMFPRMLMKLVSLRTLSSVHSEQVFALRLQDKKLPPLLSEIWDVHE
LXRα ligand binding domain (LBD), sequence (Q13133 209-447): as above
LXRβ ligand binding domain (LBD), sequence (P55055 222-460): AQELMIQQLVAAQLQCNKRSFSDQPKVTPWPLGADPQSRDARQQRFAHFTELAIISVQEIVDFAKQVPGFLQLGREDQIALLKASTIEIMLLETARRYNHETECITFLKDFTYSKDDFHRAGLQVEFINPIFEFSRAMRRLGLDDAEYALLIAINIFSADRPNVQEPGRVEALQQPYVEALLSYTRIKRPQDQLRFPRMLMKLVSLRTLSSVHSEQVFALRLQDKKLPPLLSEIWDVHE
LXRβ, sequence (P55055 222-460): as above

Row | EC50 [1] [nM] | EC50 [2] [nM] | Ki [3] [nM] | Ki [4] [nM] | SMILES | selectivity for the LXRβ subtype over the LXRα subtype [4]
1 | 6940 | 17300 | > 3330 | > 2500 | CC(C)[C@H]1c2nc3cc(CO)c(S(C)(=O)=O)cc3n2CCN1c1nccc(C(F)(F)F)n1 (single isomer, unassigned) [Compound E2b] | 
2 | 10 | 163 | 43 | 4 | CC(C)[C@@H]1c2cc3cc(CO)c(S(C)(=O)=O)cc3n2CCN1c1nccc(C(F)(F)F)n1 (single isomer, unassigned) [Compound E4a, (1-isopropyl-7-(methylsulfonyl)-2-(4-(trifluoromethyl)pyrimidin-2-yl)-1,2,3,4-tetrahydropyrazino[1,2-a]indol-8-yl)methanol] | selective for the LXRβ subtype over the LXRα subtype
3 |  | > 20000 | > 3330 |  | CC(C)[C@H]1c2cc3ccc(S(C)(=O)=O)cc3n2CCN1c1nccc(C(F)(F)F)n1 (single isomer, unassigned) [Compound E3b, 1-isopropyl-7-(methylsulfonyl)-2-(4-(trifluoromethyl)pyrimidin-2-yl)-1,2,3,4-tetrahydropyrazino[1,2-a]indole] | 
4 |  | 1100 | 398 |  | CC(C)[C@@H]1c2cc3ccc(S(C)(=O)=O)cc3n2CCN1c1nccc(C(F)(F)F)n1 (single isomer, unassigned) [Compound E3a, 1-isopropyl-7-(methylsulfonyl)-2-(4-(trifluoromethyl)pyrimidin-2-yl)-1,2,3,4-tetrahydropyrazino[1,2-a]indole] | 
5 | > 20000 | > 20000 | > 3330 | 846 | CC(C)[C@H]1c2cc3cc(CO)c(S(C)(=O)=O)cc3n2CCN1c1nccc(C(F)(F)F)n1 (single isomer, unassigned) [Compound E4b, (1-isopropyl-7-(methylsulfonyl)-2-(4-(trifluoromethyl)pyrimidin-2-yl)-1,2,3,4-tetrahydropyrazino[1,2-a]indol-8-yl)methanol] | 

Row | SMILES | EC50 [1] [nM] | EC50 [2] [nM] | Ki [3] [nM] | Ki [4] [nM] | selectivity for the LXRβ subtype over the LXRα subtype [4]
6 | CC(C)C1c2nc3ccc(S(C)(=O)=O)cc3n2CCN1c1nccc(C(F)(F)F)n1 (centres unmarked) [Compound E1, 1-isopropyl-7-(methylsulfonyl)-2-(4-(trifluoromethyl)pyrimidin-2-yl)-1,2,3,4-tetrahydrobenzo[4,5]imidazo[1,2-a]pyrazine] | 313 | 3370 | 1770 | 256 | 
7 | CC(C)[C@@H]1c2nc3cc(CO)c(S(C)(=O)=O)cc3n2CCN1c1nccc(C(F)(F)F)n1 (single isomer, unassigned) [Compound E2a] | 13 | 340 | 318 | 20 | selective for the LXRβ subtype over the LXRα subtype
